# Assay results: patent publication US20240425491A1, “HETEROARYL COMPOUNDS USEFUL IN THE TREATMENT OF COGNITIVE DISORDERS” (University College Cardiff Consultants Limited, priority 2021, published 2024)
# pKi: −log10 of the molar value.
# Experiments:
# [1] = target: T1, human recombinant GABAAR containing α5β3γ2 subunits (benzodiazepine site) (Homo sapiens, UniProt P18507+P31644); assay: In vitro radioligand binding assay (α5-GABAAR Ki); conditions: inhibition of [3H]Ro15-1788 binding, membranes of L(tk−) cells expressing human α5β3γ2; read-out: α5-GABAAR Ki
# T1 construct: expressed in transfected cells; host or cells: mouse L(tk−) cells, dexamethasone-inducible vector pMSGneo
# T1 sequence (P31644 32-462): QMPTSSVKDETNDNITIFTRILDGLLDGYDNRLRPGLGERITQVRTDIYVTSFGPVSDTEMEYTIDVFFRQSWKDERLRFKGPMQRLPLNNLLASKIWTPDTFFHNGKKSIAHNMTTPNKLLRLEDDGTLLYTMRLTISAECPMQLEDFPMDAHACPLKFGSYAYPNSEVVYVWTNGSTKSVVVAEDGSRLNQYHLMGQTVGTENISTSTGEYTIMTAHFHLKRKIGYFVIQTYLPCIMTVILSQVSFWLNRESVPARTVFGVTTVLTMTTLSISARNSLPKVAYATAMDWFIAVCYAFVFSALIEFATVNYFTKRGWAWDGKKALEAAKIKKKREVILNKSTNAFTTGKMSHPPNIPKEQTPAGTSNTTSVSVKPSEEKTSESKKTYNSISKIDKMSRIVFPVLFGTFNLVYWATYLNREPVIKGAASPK
# T1 sequence (P28472 26-473 partner): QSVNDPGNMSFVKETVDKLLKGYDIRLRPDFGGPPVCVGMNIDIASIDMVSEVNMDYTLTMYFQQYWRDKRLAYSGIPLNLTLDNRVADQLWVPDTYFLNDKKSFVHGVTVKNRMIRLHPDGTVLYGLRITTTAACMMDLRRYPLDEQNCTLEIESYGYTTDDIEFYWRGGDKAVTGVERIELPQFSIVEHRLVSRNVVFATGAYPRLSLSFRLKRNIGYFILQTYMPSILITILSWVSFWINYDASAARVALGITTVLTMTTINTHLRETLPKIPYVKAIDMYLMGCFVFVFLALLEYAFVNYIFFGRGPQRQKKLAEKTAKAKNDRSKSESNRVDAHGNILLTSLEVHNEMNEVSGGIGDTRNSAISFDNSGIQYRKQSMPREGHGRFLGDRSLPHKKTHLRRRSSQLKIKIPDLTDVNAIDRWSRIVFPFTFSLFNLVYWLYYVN
# T1 sequence (P18507 40-475): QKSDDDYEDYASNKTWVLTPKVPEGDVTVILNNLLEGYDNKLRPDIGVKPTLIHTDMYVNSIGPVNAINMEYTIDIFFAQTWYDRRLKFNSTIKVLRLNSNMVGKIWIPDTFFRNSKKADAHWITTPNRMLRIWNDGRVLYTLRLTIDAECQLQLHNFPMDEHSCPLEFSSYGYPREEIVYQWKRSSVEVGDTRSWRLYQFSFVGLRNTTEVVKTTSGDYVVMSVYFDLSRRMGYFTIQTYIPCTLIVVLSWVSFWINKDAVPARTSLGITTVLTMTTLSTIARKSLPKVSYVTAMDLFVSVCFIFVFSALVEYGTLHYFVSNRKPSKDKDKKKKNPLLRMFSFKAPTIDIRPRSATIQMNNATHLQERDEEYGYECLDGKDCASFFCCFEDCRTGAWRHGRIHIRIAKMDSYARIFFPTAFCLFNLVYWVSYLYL
# Outline: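 Membranes from mouse L(tk^−) cells stably expressing human α5β3γ2 GABAAR incubated 1 h at 4° C with 4 nM [^3H]Ro15-1788 and test compound; nonspecific binding with 1 μM TP003. Filter-bound radioactivity counted; Ki from IC50 by Cheng-Prusoff using measured Kd.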
# [2] = target: T2, human α5β3γ2 GABAARs in mouse L(tk−) cells (Homo sapiens, UniProt P18507+P31644); assay: In vitro electrophysiological recording assay (α5-GABAAR relative efficacy), QPatch; format: cell-based; conditions: GABA EC10-20
# T2 construct: expressed in transfected cells; host or cells: mouse L(tk−) cells, dexamethasone-inducible vector pMSGneo
# T2 sequence (P31644 32-462): as the sequence (P31644 32-462) above
# T2 sequence (P28472 26-473 partner): as the sequence (P28472 26-473 partner) above
# T2 sequence (P18507 40-475): as the sequence (P18507 40-475) above
# Outline: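 Whole-cell QPatch recordings at 20-22° C, −65 mV holding, in dexamethasone-induced (1 μM, 24 h) L(tk−) cells. Compound pre-applied ≥1 min, then co-applied with GABA EC10-20; percentage change in leak-corrected peak current, taken at ≥100× Ki, normalised to DMCM efficacy; 0.1% DMSO final.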
pKi [1],"α5-GABAAR Relative Efficacy (to DMCM), Qpatch ([2]; Conc 1 μM)","α5-GABAAR Relative Efficacy (to DMCM), Qpatch ([2]; Conc 0.3 μM)",SMILES,further results
8.40,−0.52,,"COc1nc(-c2cncn2C)ccc1NC(=O)c1c(-c2ccccc2)noc1C [Example 132, N-[2-Methoxy-6-(3-methylimidazol-4-yl)-3-pyridyl]-5-methyl-3-phenyl-isoxazole-4-carboxamide]",
8.39,−0.75,,"COc1nc(-c2c[nH]c(=O)c(F)c2)cnc1NC(=O)c1c(-c2ccccc2)noc1C [Example 133, N-[5-(5-Fluoro-6-oxo-1H-pyridin-3-yl)-3-methoxy-pyrazin-2-yl]-5-methyl-3-phenyl-isoxazole-4-carboxamide]",
9.00,,−0.85,"COc1nc(-c2cnc3cnccn23)ccc1NC(=O)c1c(-c2ccccc2)noc1C [Example 135, N-(6-(Imidazo[1,2-a]pyrazin-3-yl)-2-methoxypyridin-3-yl)-5-methyl-3-phenylisoxazole-4-carboxamide]",
8.48,−0.60,,"COc1nc(-c2cnc3ncccn23)ccc1NC(=O)c1c(-c2ccccc2)noc1C [Example 136, N-(6-(Imidazo[1,2-a]pyrimidin-3-yl)-2-methoxypyridin-3-yl)-5-methyl-3-phenylisoxazole-4-carboxamide]",
8.72,,−0.90,"COc1nc(-n2cnc(C#N)c2)ccc1NC(=O)c1c(-c2ccccc2)noc1C [Example 139, N-[6-(4-Cyanoimidazol-1-yl)-2-methoxy-3-pyridyl]-5-methyl-3-phenyl-isoxazole-4-carboxamide]",
8.24,−0.79,,"COc1nc(-n2cnc(C(F)(F)F)c2)ccc1NC(=O)c1c(-c2ccccc2)noc1C [Example 140, N-[2-Methoxy-6-[4-(trifluoromethyl)imidazol-1-yl]-3-pyridyl]-5-methyl-3-phenyl-isoxazole-4-carboxamide]",
8.54,,−0.85,"CCOc1ncc(-c2cnc(NC(=O)c3c(-c4ccccc4)noc3C)c(OC)n2)cn1 [Example 142, N-[5-(2-Ethoxypyrimidin-5-yl)-3-methoxy-pyrazin-2-yl]-5-methyl-3-phenyl-isoxazole-4-carboxamide]",
9.52,,,"CNc1ncc(-c2cnc(NC(=O)c3c(-c4ccccc4)noc3C)c(OC)n2)cn1 [Example 145, N-[3-Methoxy-5-[2-(methylamino)pyrimidin-5-yl]pyrazin-2-yl]-5-methyl-3-phenyl-isoxazole-4-carboxamide]","α5-GABAAR Relative Efficacy (to DMCM), Qpatch ([2]; Conc 0.1 μM): −1.12"
9.30,,,"COc1nc(-c2ccc(NC(C)=O)nc2)cnc1NC(=O)c1c(-c2ccccc2)noc1C [Example 147, N-[5-(6-Acetamido-3-pyridyl)-3-methoxy-pyrazin-2-yl]-5-methyl-3-phenyl-isoxazole-4-carboxamide]","α5-GABAAR Relative Efficacy (to DMCM), Qpatch ([2]; Conc 0.1 μM): −0.67"

# Second part, the compound before the results:
SMILES,pKi [1],"α5-GABAAR Relative Efficacy (to DMCM), Qpatch ([2]; Conc 1 μM)","α5-GABAAR Relative Efficacy (to DMCM), Qpatch ([2]; Conc 0.3 μM)",further results
"COc1nc(-c2cccc3c2CNC3=O)ccc1NC(=O)c1c(-c2ccccc2)noc1C [Example 97, N-(2-Methoxy-6-(1-oxoisoindolin-4-yl)pyridin-3-yl)-5-methyl-3-phenylisoxazole-4-carboxamide]",7.72,,,"α5-GABAAR Relative Efficacy (to DMCM), Qpatch ([2]; Conc 3 μM): −0.67"
"COc1nc(-c2ccc(N3CC[C@@H](O)C3)nc2)ccc1NC(=O)c1c(-c2ccccc2)noc1C [Example 99, (R)—N-(6′-(3-Hydroxypyrrolidin-1-yl)-6-methoxy-[2,3′-bipyridin]-5-yl)-5-methyl-3-phenylisoxazole-4-carboxamide]",8.17,−0.70,,
"COc1nc(-c2cnc3cnn(C)c3c2)ccc1NC(=O)c1c(-c2ccccc2)noc1C [Example 100, N-(2-Methoxy-6-(1-methyl-1H-pyrazolo[4,3-b]pyridin-6-yl)pyridin-3-yl)-5-methyl-3-phenylisoxazole-4-carboxamide]",8.52,,−0.72,
"COc1nc(-c2cnnn2C)ccc1NC(=O)c1c(-c2ccccc2)noc1C [Example 102, N-(2-Methoxy-6-(1-methyl-1H-1,2,3-triazol-5-yl)pyridin-3-yl)-5-methyl-3-phenyl-isoxazole-4-carboxamide]",8.82,,−0.79,
"CNc1cc(-c2ccc(NC(=O)c3c(-c4ccccc4)noc3C)c(OC)n2)ccn1 [Example 103, N-(6-Methoxy-2′-(methylamino)-[2,4′-bipyridin]-5-yl)-5-methyl-3-phenylisoxazole-4-carboxamide]",8.18,−0.78,,
"COc1nc(-c2ccnnc2)ccc1NC(=O)c1c(-c2ccccc2)noc1C [Example 104, N-(2-Methoxy-6-(pyridazin-4-yl)pyridin-3-yl)-5-methyl-3-phenylisoxazole-4-carboxamide]",8.77,,−0.68,
"COc1nc(-c2cnc3c(c2)OCO3)ccc1NC(=O)c1c(-c2ccccc2)noc1C [Example 106, N-(6-([1,3] Dioxolo[4,5-b]pyridin-6-yl)-2-methoxypyridin-3-yl)-5-methyl-3-phenylisoxazole-4-carboxamide]",7.94,,,"α5-GABAAR Relative Efficacy (to DMCM), Qpatch ([2]; Conc 3 μM): −0.40"
"COc1nc(-c2ccc(NC(C)=O)nc2)ccc1NC(=O)c1c(-c2ccccc2)noc1C [Example 108, N-(6′-Acetamido-6-methoxy-[2,3′-bipyridin]-5-yl)-5-methyl-3-phenylisoxazole-4-carboxamide]",8.51,−0.81,,
"COc1nc(-c2cnn(-c3ccncc3)c2)ccc1NC(=O)c1c(-c2ccccc2)noc1C [Example 110, N-(2-Methoxy-6-(1-(pyridin-4-yl)-1H-pyrazol-4-yl)pyridin-3-yl)-5-methyl-3-phenylisoxazole-4-carboxamide]",7.54,,,"α5-GABAAR Relative Efficacy (to DMCM), Qpatch ([2]; Conc 3 μM): −0.53"
"COc1nc(-c2ccc3c(c2)nc(C)n3C)ccc1NC(=O)c1c(-c2ccccc2)noc1C [Example 111, N-(6-(1,2-Dimethyl-1H-benzo[d]imidazol-5-yl)-2-methoxypyridin-3-yl)-5-methyl-3-phenylisoxazole-4-carboxamide]",7.88,,,"α5-GABAAR Relative Efficacy (to DMCM), Qpatch ([2]; Conc 3 μM): −0.46"
"COc1nc(-c2ccc3c(c2)COC(=O)N3)ccc1NC(=O)c1c(-c2ccccc2)noc1C [Example 119, N-(2-Methoxy-6-(2-oxo-1,4-dihydro-2H-benzo[d] [1,3]oxazin-6-yl)pyridin-3-yl)-5-methyl-3-phenylisoxazole-4-carboxamide]",7.86,,,"α5-GABAAR Relative Efficacy (to DMCM), Qpatch ([2]; Conc 3 μM): −0.63"
"COc1nc(-c2cnoc2)cnc1NC(=O)c1c(-c2ccccc2)noc1C [Example 120, N-(5-Isoxazol-4-yl-3-methoxy-pyrazin-2-yl)-5-methyl-3-phenyl-isoxazole-4-carboxamide]",8.34,−0.73,,
"COc1nc(-c2ncc[nH]2)ccc1NC(=O)c1c(-c2ccccc2)noc1C [Example 121, N-[6-(1H-Imidazol-2-yl)-2-methoxy-3-pyridyl]-5-methyl-3-phenyl-isoxazole-4-carboxamide]",8.68,,−0.36,
"COc1nc(-c2ncco2)ccc1NC(=O)c1c(-c2ccccc2)noc1C [Example 123, N-(2-Methoxy-6-oxazol-2-yl-3-pyridyl)-5-methyl-3-phenyl-isoxazole-4-carboxamide]",7.93,,,"α5-GABAAR Relative Efficacy (to DMCM), Qpatch ([2]; Conc 3 μM): −0.48"
"COc1nc(-c2cnoc2)ccc1NC(=O)c1c(C)nnn1-c1ccccc1 [Example 124, N-(6-(Isoxazol-4-yl)-2-methoxypyridin-3-yl)-4-methyl-1-phenyl-1H-1,2,3-triazole-5-carboxamide]",7.63,,,"α5-GABAAR Relative Efficacy (to DMCM), Qpatch ([2]; Conc 3 μM): −1.40"
"COCc1ncc(-c2ccc(NC(=O)c3c(-c4ccccc4)noc3C)c(OC)n2)cn1 [Example 125, N-[2-Methoxy-6-[2-(methoxymethyl)pyrimidin-5-yl]-3-pyridyl]-5-methyl-3-phenyl-isoxazole-4-carboxamide]",8.60,,−0.84,
"COc1ccc(-c2ccc(NC(=O)c3c(-c4ccccc4)noc3C)c(OC)n2)nn1 [Example 128, N-[2-Methoxy-6-(6-methoxypyridazin-3-yl)-3-pyridyl]-5-methyl-3-phenyl-isoxazole-4-carboxamide]",7.33,,,"α5-GABAAR Relative Efficacy (to DMCM), Qpatch ([2]; Conc 10 μM): −0.19"
"COc1nc(-c2cnc(C(=O)N(C)C)nc2)ccc1NC(=O)c1c(-c2ccccc2)noc1C [Example 130, N-[6-[2-(Dimethylcarbamoyl)pyrimidin-5-yl]-2-methoxy-3-pyridyl]-5-methyl-3-phenyl-isoxazole-4-carboxamide]",8.64,,−0.55,
"COc1nc(-c2ccn3nc(N(C)C)nc3c2)ccc1NC(=O)c1c(-c2ccccc2)noc1C.Cl [Example 131, N-[6-[2-(Dimethylamino)-[1,2,4]triazolo[1,5-a]pyridin-7-yl]-2-methoxy-3-pyridyl]-5-methyl-3-phenyl-isoxazole-4-carboxamide hydrochloride]",8.01,−0.67,,
"COc1nc(-c2cnc3n2CCNC3)ccc1NC(=O)c1c(-c2ccccc2)noc1C.Cl [Example 138, N-(2-Methoxy-6-(5,6,7,8-tetrahydroimidazo[1,2-a]pyrazin-3-yl)pyridin-3-yl)-5-methyl-3-phenylisoxazole-4-carboxamide hydrochloride]",8.49,−0.62,,
